Assays:
rats = assay: MK-801-induced persistent latent inhibition (conditioned emotional response procedure); type: in vivo, rat
Description: When the bottle was not present, the hole was covered by a metal lid. Licks were detected by a Campden Instruments drinkometer. The preexposed to-be-conditioned stimulus was a 10 sec, 80 dB, 2.8 kHz tone produced by a Sonalert module. Shock was supplied through the floor by a Campden Instruments shock generator and shock scrambler set at 0.5 mA and 1 sec duration. Equipment programming and data recording were computer controlled.
Water in the test apparatus was given in addition to the daily ration of 1 h given in the home cages.
Shock immediately followed tone termination. The first tone-shock pairing was given 5 min after the start of the session. After the last pairing, rats were left in the experimental chamber for an additional 5 min.
When the rat completed 75 licks the tone was presented for 5 min. The following times were recorded: Time to first lick, time to complete licks 1-50, time to complete licks 51-75 (before tone onset) and time to complete licks 76-100 (after tone onset). Times to complete licks 76-100 were logarithmically transformed to allow parametric analysis of variance. Longer log times indicate stronger suppression of drinking.

Male Sprague-Dawley rats [1] = assay: Antipsychotic induced catalepsy (bar test); settings: for olanzapine-induced catalepsy: olanzapine 10 mg/kg ip
Protocol: (§3) Animals: Male Sprague-Dawley rats (Charles River Laboratories) weighing 267-457 g were used. The animals were housed under standard laboratory conditions as outlined in the NIH Guide for Care and Use of Laboratory Animals. They were maintained on a 12:12 light/dark cycle with tap water and Lab Diet rodent chow ad libitum. Rats were acclimatized to the experimental room for 60 min prior to injections. Procedure: The test for catalepsy consists of placing an individual animal in a white translucent plastic box (26×20×15 cm) with a wooden dowel mounted horizontally 10 cm from the floor and 4 cm from one end of the box. The floor is covered with approximately 1 cm of bedding material. Test animals are transferred from the vivarium in their home cages to the experimental room and are allowed to acclimatize for 60 mins. Five animals are kept in a cage. The animals are transferred into another cage after treatment. […] 30 mins after the second treatment, animals were placed individually in the white translucent plastic boxes and tested for catalepsy following a one minute acclimatization period. A group of five animals are tested at a time. Each treatment group consists of 10 animals.
(§4) At the end of the one minute acclimation period, each animal is gently grasped around the shoulders and under the forepaws, and gently placed on the wooden dowel. The amount of time each rat spends with at least one forepaw on the bar determined for a maximum period of 180 seconds. This is repeated three times.
(§5) Haloperidol was used at the dose of 1 mg/kg.
(§6) Haloperidol was dissolved in distilled water via dilution of a 5 mg/ml stock solution in distilled water. Olanzapine was dissolved in three drops of HCl prior to the addition of distilled water to full volume.

[2] = Antipsychotic induced catalepsy (bar test); settings: male, Sprague-Dawley, rat, in vivo, intraperitoneal
Protocol: as §3, §4, §5, §6

Male Sprague-Dawley rats [3] = assay: Amphetamine-induced locomotion; type: in vivo, rat
Protocol: (§1) Animals: Male CD-1 mice (Charles River Laboratories) weighing 20-30 g were used. Male Sprague-Dawley rats (Charles River Laboratories) weighing 250-433 g were used. […] Procedure: A standard automated locomotion assay was employed (see, for example: R. Christopher Pierce and Peter Kalivas. (1997) Locomotor Behavior. In: Current Protocols in Neuroscience, Volume 3, 8.1.1-8.1.8. G. P. Taylor, Editor. New York: John Wiley & Sons, Inc.). Horizontal activity was measured by beam breaks of photocells lining the chamber exterior to the activity boxes. The activity was measured for 60 min during spontaneous locomotion or 90 min for the PCP or amphetamine-induced assays. Example 2 was administered per os (po) with a 1 hr pre-treatment. […] PCP or amphetamine was administered ip or subcutaneous (sc), respectively, with no pre-treatment. When pre-treatment time elapsed for each rodent, the activity cage was transferred from its holding rack and placed into its own locomotion chamber. Independent start time is possible with the recording of activity commencing almost immediately. The computer automatically times out each chamber individually when the session has ended. Drugs: Doses of Example 2 for mice were 0.3, 1, 3, and 10 mg/kg, p.o. The lowest dose was not tested in spontaneous locomotion for rats. The three highest doses of Example 2 were tested against PCP-induced and amphetamine-induced locomotion in mice and rats, respectively. The conventional antipsychotic haloperidol was used in co-administration with Example 2 (1, 3, and 10 mg/kg) at the doses of 0.1 and 0.2 mg/kg in mice to reverse PCP-induced locomotion. Haloperidol was co-administered at the dose of 0.3 mg/kg in rats to reverse amphetamine-induced locomotion.
(§2) Phencyclidine and amphetamine were dissolved in distilled water.

Male CD-1 mice = assay: PCP-induced locomotion; type: in vivo, mouse
Protocol: as §1, §2

[4] = tested on: Female Wistar rats on high fat diet; assay: Antipsychotic (olanzapine) induced weight gain
Description: Animals: Female Wistar rats on high fat diet were used in this Example.

Male Sprague Dawley rats = assay: Holeboard test (working memory performance); type: in vivo, rat
Description: Similarly, a working memory performance in a rat hole board model has been used to measure various cognition deficits. The hole board task is a well-known and widely used assay to measure working and reference memory in rodents. This model utilizes a board with 8 holes, each baited with a food reward, thus taking advantage of the rodent's natural propensity to forage for food. In a modified version, it has now been able to assess improvements in working memory performance without the use of amnestic agents. Male Sprague Dawley rats are allowed to find and consume 4 of the 8 rewards and then removed to the home cage for 2 minutes. They are then returned and allowed to find and consume the remaining 4 rewards. Any returns to holes already visited are considered working memory errors.
Animals: Male Sprague Dawley rats (Charles River) were housed on a 12 hour light/dark cycle, with lights on at 06:00. Rats were maintained at 80% of their normal body weight, with average starting weights at 200-220 grams. Rats were acclimated to the testing chamber (Med-Associates, Inc. hole board in a ventilated, sound-attenuating cubicle) for four 10-minute trials over a two-day period 24 hours prior to drug treatments. The testing chamber contains eight holes, each of which is baited with a food reward (cocoa puff). Procedure: Each experiment was carried over two-three days, with a 3 day (experiment 1), 4 day (experiment 2), and 3 day (experiment 3) washout in between. Thirty two animals were used for each experiment, with each animal pseudo-randomly assigned to treatment groups such that each animal received two of the four-five treatments, with an even distribution of all possible treatment-treatment combinations. There were a total of 16 animals per treatment group. On test days, rats were injected intraperitoneally (i.p.) with N-{1-[bis(4-chlorophenyl)methyl]azetidin-3-yl}-N-(3,5-difluorophenyl)methylsulfonamide (Example 2) (Exp 1: 0.3, 1, or 3 mg/kg; Exp 2: 1, 3 or 10 mg/kg) or vehicle (distilled water with 1% tween). For Exp 3, rats were injected i.p. with risperidone followed by Example 2 (Exp 3: 0.010, 0.10, or 1.0 mg/kg with 3 mg/kg Example 2) or vehicle (0.9% NaCl with 1% tween). The rats were then placed in the test chamber 60 minutes later. After consuming 4 food rewards, the rats were removed from the chamber for 2 minutes and returned to their home cage. They were then returned to the chamber and allowed to retrieve and finish the remaining four rewards, or for a total of 10 minutes. […] The number of visits to holes that they have already visited were noted. Drugs: Doses of Example 2 were 0.3, 1 and 3 mg/kg (experiment 1) and 1, 3 and 10 mg/kg (experiment 2). Example 2 was put into suspension with distilled water (exp 1 & 2) or 0.9% NaCl (exp 3), with the addition of tween 80. Doses of risperidone (antipsychotic, Sigma) were 0.010, 0.10, and 1.0 mg/kg (experiment 3). risperidone was solubilized in 0.9% NaCl with the addition of 1% tween 80,

C[C@]12N[C@H](Cc3ccccc31)c1ccccc12 [MK-801, dizocilpine]
latent inhibition (LI) with 40 preexposures and 5 conditioning trials (rats; MK-801 0.05 mg/kg i.p., 30 minutes before conditioning): showed LI in spite of extended conditioning

O=C(CCCN1CCC(O)(c2ccc(Cl)cc2)CC1)c1ccc(F)cc1 [haloperidol, reference compound]
induction of catalepsy compared to vehicle treated animals (Male Sprague-Dawley rats [1]; haloperidol 1 and 3 mg/kg): significantly induces catalepsy
ED50 at 30 min [2]: 0.64 mg/kg
reversal of locomotor hyperactivity (Male Sprague-Dawley rats [3]; haloperidol 0.3 mg/kg ip): highly significant reversal

NCC(=O)O [glycine, Glycine]
MK-801-induced abnormally persistent LI (rats; glycine 0.8 g/kg i.p., 30 minutes prior to conditioning): reversed

N-{1-[Bis(4-chlorophenyl)methyl]azetidin-3-yl}-N-(3,5-difluorophenyl)methylsulfonamide [Example 2]
reversal of locomotor hyperactivity induced by PCP (Male CD-1 mice; Example 2 alone 1, 3, and 10 mg/kg p.o.): no significant reversal
effect of co-treatment with haloperidol on PCP-induced locomotion (Male CD-1 mice; haloperidol 0.1 and 0.2 mg/kg ip with Example 2 1, 3, 10 mg/kg p.o.): yielded the same effects whether or not Example 2 was present or absent
effect of co-treatment with olanzapine on PCP-induced locomotion (Male CD-1 mice; olanzapine 0.03 and 0.3 mg/kg ip with Example 2 1, 3, 10 mg/kg p.o.): yielded the same effects whether or not Example 2 was present or absent
weight gain vs. saline controls ([4]; 10 mg/kg Example 2 i.p. with olanzapine 3 mg/kg i.p.): not significant from saline controls
weight vs. saline ([4]; Example 2 alone 10 mg/kg i.p.): no significant effect
weight gain elicited by olanzapine ([4]; co-administration of Example 2 1, 3, and 10 mg/kg i.p. with olanzapine 3 mg/kg i.p.): dose dependent attenuation
number of working memory errors compared to vehicle treated animals (Male Sprague Dawley rats; Experiment 1, 0.3 mg/kg i.p., after 2 minute delay): but not the 0.3 or 1 mg/kg doses
number of working memory errors compared to vehicle treated animals (Male Sprague Dawley rats; Experiment 1, 1 mg/kg i.p., after 2 minute delay): but not the 0.3 or 1 mg/kg doses
number of working memory errors compared to vehicle treated animals (Male Sprague Dawley rats; Experiment 1, 3 mg/kg i.p., after 2 minute delay, p<0.05): significant decrease
number of working memory errors compared to vehicle treated animals (Male Sprague Dawley rats; Experiment 2, 3 mg/kg i.p., after 2 minute delay, p<0.05): significant decrease
number of working memory errors compared to vehicle treated animals (Male Sprague Dawley rats; Experiment 2, 10 mg/kg i.p., after 2 minute delay, p<0.05): significant decrease
number of working memory errors compared to vehicle treated animals (Male Sprague Dawley rats; Experiment 3, 3 mg/kg Example 2 in combination with 0.10 mg/kg risperidone i.p., p<0.05): significant decrease
number of working memory errors compared to vehicle treated animals (Male Sprague Dawley rats; Experiment 3, 3 mg/kg i.p. Example 2 alone, p<0.05): significant decrease
minimum effective dose for improvement in working memory performance (Male Sprague Dawley rats; i.p.): 3 mg/kg
MK801-induced persistent latent inhibition (rats; 1, 3 and 10 mg/kg i.p., 60 minutes prior to pre-exposure and conditioning): reversed
olanzapine-induced catalepsy (Male Sprague-Dawley rats [1]; Example 2 3 mg/kg orally): significantly reversed
haloperidol-induced catalepsy (Male Sprague-Dawley rats [1]; Example 2 10 mg/kg orally, haloperidol 1 mg/kg ip): significantly reversed
olanzapine-induced catalepsy (Male Sprague-Dawley rats [1]; Example 2 10 mg/kg orally): significantly reversed
reversal of locomotor hyperactivity induced by d-AMPH (Male Sprague-Dawley rats [3]; rats, Example 2 alone 1, 3, and 10 mg/kg p.o.): no significant reversal
effect of co-treatment with haloperidol on amphetamine-induced locomotion (Male Sprague-Dawley rats [3]; rats, haloperidol 0.3 mg/kg ip with Example 2): yielded the same effects whether or not Example 2 was present or absent
effect of co-treatment with olanzapine on amphetamine-induced locomotion (Male Sprague-Dawley rats [3]; rats, olanzapine 1 and 3 mg/kg ip with Example 2): yielded the same effects whether or not Example 2 was present or absent

— US20080221078A1, “Use of a CB1 Antagonist for Treating Side Effects and Negative Symptoms of Schizophrenia” (priority 2005, published 2008)
